Experiment [1] deals with K-ras G12D (Homo sapiens, UniProt P01116, G12D). The experiment is described as follows: G-LISA Ras activation assay, 293H cells transfected with G12D mutant. The format is cell-based. Particulars: 1 hour treatment. The method, then:
(§1) 293H cells were seeded in 6-wells at 0.6×10^6 cells per well and transfected next day with 5 μg of Ras wild-type, or G12C, G12D or G12V mutant DNA plasmid vector using transfection reagent Lipofectamine 3000. Next day cells were treated with 3.125-50 μM of Ras compounds for 1 hour. Wild-type transfected cells were subsequently treated with 100 ng/ml EGF for 2 minutes. Cells were washed once in ice-cold PBS, lysed in complete lysis buffer on ice, and processed by G-LISA according to Cytoskeleton protocol.
(§2) In-cell selectivity of the compounds presented herein against a specific K-ras mutant form can also be tested as shown in the following exemplary experiment. 293H cells were seeded in 6-wells and transfected next day with 5 μg of Ras wild-type, or G12C, G12D or G12V mutant DNA plasmid vector. Next day cells were treated with 3.125-50 μM of Ras compounds for 1 hour. Wild-type transfected cells were subsequently treated with 100 ng/ml EGF for 2 minutes. Cells were washed once in ice-cold PBS, lysed in complete lysis buffer on ice, and processed by G-LISA according to Cytoskeleton protocol. FIG. 1 depicts exemplary results.
as §1, with “In still further experiments, the inventors tested selected compounds in a G-LISA assay to compare IC50 values for wild-type and various mutant K-Ras (G12D, G12V) using the following general protocol: 293H” for “293H”

Experiment [2] concerns the target K-ras G12V (GTP) (Homo sapiens, UniProt P01116, G12V). The experiment is described as follows: SPR assay (surface plasmon resonance). Particulars: 25° C., 8% DMSO. In kind it is binding. The protocol:
(§3) Selected compounds were also tested for selective binding to wild type and mutant forms of K-ras in the active and non-active state using surface plasmon resonance, and exemplary results are shown in Table 4.
(§4) The running buffer in all surface plasmon resonance experiments was 10 mM HEPES pH 7.4, 150 mM NaCl, 0.1% (v/v) Tween-20, 1 mM MgCl2, 8% DMSO. Experiments were carried out on the SensiQ Pioneer optical biosensor. The flow rate was set at 50 μL/min and the temperature was 25° C. kRAS protein was immobilized to the Nickel-NTA charged surface of the SensiQ HisCap chip (sensiqtech.com) giving a yield of 4000 RU. Small molecules were prepared in 100% DMSO and further diluted to 8% DMSO in running buffer. The small molecules were injected using the Taylor diffusion gradient injection mode (OneStep®, see e.g., Evaluation of Taylor dispersion injections: Determining kinetic/affinity interaction constants and diffusion coefficients in label-free biosensing, John G. Quinn, Analytical Biochemistry (2011)). Buffer blanks were injected for double referencing purposes. Data processing and model fitting were performed using Qdat.

Experiment [3] has as its target K-ras G12D (GTP) (Homo sapiens, UniProt P01116, G12D). The experiment is described as follows: SPR assay (surface plasmon resonance). In kind it is binding. Particulars: 25° C., 8% DMSO. The protocol:
as §3, §4
(In general: In SPR one partner is held on a chip, and binding of the other changes the refractive index at the surface.)

The target in experiment [4] is K-Ras wild-type (Homo sapiens, UniProt P01116). The experiment is described as follows: G-LISA Ras activation assay, 293H cells transfected with Ras wild-type, EGF-stimulated. The format is cell-based. Particulars: Table 5; IC50, 293H transfected, 1 hour treatment, 100 ng/ml EGF; read-out: G-LISA (wild type). The protocol: as §1, §2
as §1, with “In still further experiments, the inventors tested selected compounds in a G-LISA assay to compare IC50 values for wild-type and various mutant K-Ras (G12D, G12V) using the following general protocol: 293H” for “293H”

Experiment [5] addresses K-ras wild-type (GTP) (Homo sapiens, UniProt P01116). The experiment is described as follows: SPR assay (surface plasmon resonance). The format is binding. The conditions noted are these: 25° C., 8% DMSO. The protocol:
as §3, §4

Setting [6] is: Table 1, G-LISA, 293H transfected, read-out: IC50 (μM) G12D.
Where [7] appears, read: Table 5, IC50, 293H transfected, read-out: G-LISA (G12D).

Read-outs that look alike come from different tables or passages of the source.

For `Cc1nc(C)c(C(=O)Nc2nc(-c3ccc4c(c3)CCC(=O)N4)cs2)[nH]1` [Compound 4805], the figures for the IC50 in experiment [1] (setting [6]), in experiment [1] (setting [7]) and in experiment [4] were greater than 25 µM, 187 µM and 7 µM, respectively. For the same compound, the Kd in experiment [2] is 12.1 µM; in experiment [3] it was 570 µM. Further, the “SPR Assay G12V (GTP) Rmax” value in experiment [2] is reported as “Rmax = 100.3 ± 0.2”. Besides, the “SPR Assay G12D (GTP) Rmax” value in experiment [3] is on record as “Rmax = 219 ± 5”.
On to `Cc1nc(C)c(C(=O)Nc2nc(-c3ccc4c(c3)CC(=O)N4)cs2)s1` [Compound 4639], for which the IC50 in experiment [1] (setting [6]) and in experiment [1] (setting [7]) was greater than 25 µM in each case. In experiment [5], the Kd is 6.4 µM. Moreover, the “SPR Assay Wild-type (GTP) Rmax” value in experiment [5] is given as “Rmax = 14.6 ± 0.1”.
With `O=C1CCc2cc(-c3csc(NC(=O)c4scnc4-c4ccccc4)n3)ccc2N1` [Compound 4800], the IC50 in experiment [1] (setting [6]) and in experiment [1] (setting [7]) was greater than 25 µM throughout. The results for the Kd in experiment [2] and in experiment [3] were 15.2 µM and 27.2 µM, respectively. For the same compound, in experiment [2], the “SPR Assay G12V (GTP) Rmax” value is given as “Rmax = 57.1 ± 0.2”. Besides, the “SPR Assay G12D (GTP) Rmax” value in experiment [3] is “Rmax = 389 ± 1”.

As usually defined, the Kd is the equilibrium constant for the complex coming apart. Higher therefore signals weaker binding.
